Assay results: BigSolDB 2.1

Nc1nnc[nH]1
solubility (mole fraction)
Conditions	in 1,4-dioxane	in 2-butanone	in NMP	in acetone	in acetonitrile	in ethanol	in ethyl acetate	in isopropanol	in methanol	in n-propanol
283.15 K	–	0.00169	0.145	0.00476	0.00061	0.0112	0.00147	0.00423	0.0306	0.0057
285.65 K	–	0.00191	0.152	0.00515	0.000713	0.0126	0.00168	0.00515	0.0329	0.007
288.15 K	0.00325	0.00214	0.159	0.00564	0.000871	0.0143	0.0019	0.00634	0.0353	0.00835
290.65 K	0.0037	0.00242	0.166	0.00617	0.00106	0.0165	0.00213	0.00755	0.038	0.00983
293.15 K	0.00404	0.00272	0.173	0.00672	0.00127	0.0187	0.00237	0.00912	0.0408	0.0116
295.65 K	0.00449	0.00306	0.181	0.00727	0.00153	0.0213	0.00263	0.0111	0.0437	0.0135
298.15 K	0.00506	0.00344	0.189	0.00793	0.00185	0.0239	0.00286	0.0135	0.0471	0.0162
300.65 K	0.00569	0.00386	0.198	0.00869	0.00224	0.0269	0.00313	0.0161	0.0501	0.0189
303.15 K	0.0064	0.00438	0.206	0.0095	0.00273	0.0302	0.00345	0.0191	0.0537	0.022
305.65 K	0.00708	0.00497	0.215	0.0104	0.00327	0.0338	0.00383	0.0217	0.0574	0.0255
308.15 K	0.00785	0.0056	0.225	0.0114	0.00384	0.0378	0.00421	0.0259	0.0613	0.0293
310.65 K	0.00865	0.00626	0.234	0.0123	0.00453	0.042	0.00458	0.0304	0.0654	0.0339
313.15 K	0.00952	0.00698	0.244	0.0133	0.00528	0.0469	0.00503	0.035	0.0701	0.0388
315.65 K	0.0103	0.00768	0.255	0.0142	0.00614	0.0516	0.00549	0.0398	0.0745	0.0448
318.15 K	0.0114	0.00844	0.267	0.0152	0.00698	0.0569	0.00602	0.0453	0.0794	0.0512
